Legend:
MIN6 cell [1] = experiment: Insulin secretion promoting activity for cultured β-cells, in the presence of 5 mmol/L glucose; type: cell-based; details: for Insulin secretion amount (ng/mL) Avg: 5 mmol/L glucose, None: 51.2; for secretion promoting action at low glucose concentration (in words): glucose at a low concentration (5 mmol/L)
Method: (§1) Further, the insulin secretion of the MIN6 cell is prompted in response to sulfonylurea-agents such as glibenclamide, which are used as a medicament for treatment of diabetes (Cellular Signalling, vol. 5, p. 777-786, 1993).
Separately, the effect of a compound on the insulin secretion in the presence of 5 mmol/L glucose was determined by measuring insulin amounts in cell culture supernatants collected as follows. MIN6 cells cultured on a 24-well plate were washed twice by using 1 mL of Buffer A containing 5 mmol/L glucose, and then the culture supernatant was changed to Buffer A (0.9 mL) containing a test compound at various concentrations and 5 mmol/L glucose. Then, the cells were incubated at 37° C. for 45 minutes (final glucose concentration: 5 mmol/L), and the culture supernatant was collected.
After the culture supernatant was diluted with a phosphate buffer containing 1% bovine serum albumin, 0.1% Tween 20, 0.12% disodium ethylenediaminetetraacetate (EDTA), and 0.1% sodium azide, antibody-reactive insulin secreted in the culture supernatant was qualified by enzyme immunoassay or radio immunoassay. The insulin level was indicated as the amount of human insulin (ng/mL). The results are indicated as average (avg) of 3 to 4 samples with standard error values (se).

MIN6 cell [2] = experiment: Insulin secretion promoting activity for cultured β-cells, in the presence of 14.5 mmol/L glucose; type: cell-based; details: none: 148.4
Method: as §1
Culture of the MIN6 cells above and insulin secretion test utilizing the MIN6 cells were performed according to the methods described in Diabetologia, vol. 36, p. 1139-1145, 1993. The effect of a compound on the insulin secretion in the presence of 14.5 mmol/L glucose was determined by measuring insulin amounts in cell culture supernatants collected as follows. MIN6 cells cultured on a 24-well plate were washed twice by using 1 mL of Buffer A (119 mmol/L sodium chloride, 4.74 mmol/L potassium chloride, 2.54 mmol/L calcium chloride, 1.19 mmol/L magnesium sulfate, 1.19 mmol/L potassium dihydrogenphosphate, 10 mmol/L 2-[4-(2-hydroxyethyl)-1-piperazinyl]ethanesulfonic acid, and 0.1% bovine serum albumin, pH 7.3) containing 2 mmol/L glucose, and then were incubated in 1 mL of Buffer A containing 2 mmol/L glucose at 37° C. for 45 minutes. After the incubation, the culture supernatant was changed to Buffer A (0.9 mL) containing a test compound at various concentrations and 2 mmol/L glucose, and the cells were further incubated at 37° C. for 15 minutes. […]

SMILES	Insulin secretion amount (ng/mL) Avg (MIN6 cell [1]; drug concentration 10 μmol/L) [ng/mL]	secretion promoting action at low glucose concentration (in words) (MIN6 cell [1])	Insulin secretion amount (ng/mL) avg (MIN6 cell [2]; drug concentration 10 μmol/L) [ng/mL]	Insulin secretion amount (ng/mL) Avg (MIN6 cell [1]; drug concentration 0.1 μmol/L) [ng/mL]	Insulin secretion amount (ng/mL) avg (MIN6 cell [2]; drug concentration 0.1 μmol/L) [ng/mL]
CC(C)[C@H]1CC[C@H](C(=O)N[C@H](Cc2ccccc2)C(=O)O)CC1 [AY4166]	170.8	showed marked secretion promoting action	195.1	–	–
COc1ccc(Cl)cc1C(=O)NCCc1ccc(S(=O)(=O)NC(=O)NC2CCCCC2)cc1 [Glibenclamide]	–	showed marked secretion promoting action	–	156.8	177.8
